Usually IC50 stands for the point on the concentration scale where inhibition reaches its midpoint. In general, IC90 refers to the point of the concentration-response curve where the effect stands at 90%.

Where two headings read alike, the source gives them in different places.

This passage reports IC50 and IC90 results from paper PMC11963564 (Antimicrobial Agents and Chemotherapy, 2025).

The subject of assay [1] is SARS-CoV-2 Omicron BA.1. Nature of the assay: microbe, parasite or virus in culture. It counts as cell-based.
Assay [2] has as its system SARS-CoV-2 Omicron BA.4. As to the kind of experiment: microbe, parasite or virus in culture. It counts as cell-based.
The test system of assay [3] is SARS-CoV-2 Omicron BA.5. As to the kind of experiment: microbe, parasite or virus in culture. It counts as cell-based.
The subject of assay [4] is SARS-CoV-2 Omicron CH.1.1. As to the kind of experiment: microbe, parasite or virus in culture. In kind it is cell-based.
Assay [5] relates to SARS-CoV-2 Omicron XBB.1.5. Nature of the assay: microbe, parasite or virus in culture. It counts as cell-based.
Assay [6] deals with SARS-CoV-2 Omicron XBB.1.16. Nature of the assay: microbe, parasite or virus in culture. In kind it is cell-based.
The test system of assay [7] is SARS-CoV-2 Omicron EG.5. As to the kind of experiment: microbe, parasite or virus in culture. In kind it is cell-based.
For assay [8], the system named is SARS-CoV-2 Omicron JN.1. Nature of the assay: microbe, parasite or virus in culture. In kind it is cell-based.
Assay [9] relates to SARS-CoV-2 WIV04. To be noted: cited from earlier work.
Assay [10] relates to SARS-CoV-2 Delta. To be noted: cited from earlier work.
[11] abbreviates: Severe acute respiratory syndrome coronavirus 2, Vero C1008, 48 h.
Where [12] appears, read: Severe acute respiratory syndrome coronavirus 2, Vero C1008, 72 h.

On to simnotrelvir, for which the IC50 in assay [1] (read-out: IC50) was determined as 148 ± 62 nM; in assay [2] (read-out: IC50), 189 ± 6 nM; in assay [3] (read-out: IC50), 208 ± 55 nM; in assay [4] (read-out: IC50), 65 ± 6 nM; in assay [5] (read-out: IC50), 82 ± 58 nM; in assay [6] (read-out: IC50), 130 ± 20 nM. Also, the IC50 in [7] (read-out: IC50) was 174 ± 97 nM; in assay [8] (read-out: IC50), 124 ± 31 nM; in assay [9], 26 nM; in [10], 34 nM. Further, the concentration for an effect of 90% (IC90) was determined as 267 ± 82 nM in [1] (read-out: IC90); 250 ± 67 nM in assay [2] (read-out: IC90); 449 ± 171 nM in assay [3] (read-out: IC90); 99 ± 52 nM in [4] (read-out: IC90); 254 ± 111 nM in assay [5] (read-out: IC90); 230 ± 93 nM in [6] (read-out: IC90). The concentration for an effect of 90% (IC90) was 803 ± 236 nM in assay [7] (read-out: IC90) and 684 ± 188 nM in assay [8] (read-out: IC90).
For the molecule `CC(C)(C)[C@H](NC(=O)C(F)(F)F)C(=O)N1C[C@H]2[C@@H]([C@H]1C(=O)N[C@H](C#N)C[C@@H]1CCNC1=O)C2(C)C` [nirmatrelvir, reference compound], the concentration for half-maximal inhibition (IC50) in [1] (setting [11]) came out at 57 ± 12 nM; in [2] (setting [11]) it was 72 ± 13 nM; in assay [3] (setting [11]) it was 90 ± 38 nM; in assay [4] (setting [11]), 26 ± 21 nM; in assay [5] (setting [11]), 22 ± 14 nM; in assay [6] (setting [12]), 101 ± 23 nM. Besides, the 50% inhibitory concentration (IC50) in [7] (setting [12]) came out at 98 ± 26 nM; in assay [8] (setting [12]), 98 ± 27 nM. For the same molecule, the IC90 in assay [1] (setting [11]) was determined as 142 ± 61 nM; in assay [2] (setting [11]), 157 ± 77 nM; in [3] (setting [11]), 341 ± 140 nM; in assay [4] (setting [11]), 59 ± 26 nM; in assay [5] (setting [11]), 84 ± 39 nM; in assay [6] (setting [12]) it was 262 ± 140 nM. Also, the IC90 in assay [7] (setting [12]) was determined as 617 ± 170 nM; in [8] (setting [12]), 469 ± 183 nM.
